Data from patent publication US12668585B2, “Substituted pyrimidinyl-pyrazoles as CDK2 inhibitors” (BLUEPRINT MEDICINES CORPORATION, priority 2021, dated 2026).
pIC50: −log10 of the molar value.

What was measured:
CDK2/Cyclin E = molecular target: T1, CDK2/Cyclin E (Homo sapiens, UniProt P24941); test: Biochemical CDK inhibition assay (Caliper mobility shift), CDK2/Cyclin E; settings: read-out: CDK2/cyclin E1 IC50
T1 construct: purchased Eurofins 14-475
Procedure: (§1) Inhibitory effects of the compounds of the disclosure were measured in biochemical assays that measure the enzymatic phosphorylation activity of CDK enzyme in complex of Cyclin proteins phosphorylates 7.5 micromolar fluorescently labelled peptide substrate, 5-FAM-QSPKKG-CONH2, (FL-Peptide 18, Perkin Elmer, 760362) in the presence of adenosine-5′-triphosphate (ATP) and varying concentrations of the test compound in 100 mM 2-[4-(2-hydroxyethyl)piperazin-1-yl] ethanesulfonic acid (HEPES), pH 7.5, 10 mM MgCl2, 0.015% Brij-35, 1 mM dithiothreitol (DTT), 1.0% dimehylsulfoxide (DMSO). […] Reactions proceeded until between 10% to 20% total peptides were phosphorylated at room temperature (25° C.) and were terminated with 35 mM 2,2′,2″,2′″-(ethane-1,2-diyldinitrilo)tetraacetic acid (EDTA). Product was detected using the Caliper mobility shift detection method where the phosphorylated peptide (product) and substrate were electrophoretically separated and measured. Percent activity was plotted against log concentration of compound and points to generate an apparent IC50. The following CDK enzymes in complex with different cyclin proteins were used in these assays: • CDK1/Cyclin B1, GST-tag (BPS, 40454), 1.5 nM used in the assay • CDK2/Cyclin E (Eurofins, 14-475), 1.25 nM used in the assays
(§2) For inhibitory activity against CDK2/Cyclin E mutant, the following designations are used: ≤10 nM=A; >10-20 nM=B; >20-30 nM=C; >30-100 nM=D and >100=E. For inhibition CDK1/Cyclin B1, GST-tag: ≥500 nM=A; <100-500 nM=B; <100 nM=C.

CDK1/Cyclin B1, GST-tag = molecular target: T2, CDK1/Cyclin B1, GST-tag (Homo sapiens, UniProt P06493); test: Biochemical CDK inhibition assay (Caliper mobility shift), CDK1/Cyclin B1
T2 construct: GST; purchased BPS 40454
T2 sequence (P06493 whole entry): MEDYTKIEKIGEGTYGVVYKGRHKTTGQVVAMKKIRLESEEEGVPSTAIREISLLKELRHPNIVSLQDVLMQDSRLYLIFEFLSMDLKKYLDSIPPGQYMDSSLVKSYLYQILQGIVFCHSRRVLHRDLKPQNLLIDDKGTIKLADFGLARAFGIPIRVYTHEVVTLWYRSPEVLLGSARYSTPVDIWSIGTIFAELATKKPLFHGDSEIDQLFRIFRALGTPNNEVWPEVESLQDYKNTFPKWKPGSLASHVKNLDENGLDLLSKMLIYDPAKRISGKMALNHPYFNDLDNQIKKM
T2 sequence (P14635 whole entry partner): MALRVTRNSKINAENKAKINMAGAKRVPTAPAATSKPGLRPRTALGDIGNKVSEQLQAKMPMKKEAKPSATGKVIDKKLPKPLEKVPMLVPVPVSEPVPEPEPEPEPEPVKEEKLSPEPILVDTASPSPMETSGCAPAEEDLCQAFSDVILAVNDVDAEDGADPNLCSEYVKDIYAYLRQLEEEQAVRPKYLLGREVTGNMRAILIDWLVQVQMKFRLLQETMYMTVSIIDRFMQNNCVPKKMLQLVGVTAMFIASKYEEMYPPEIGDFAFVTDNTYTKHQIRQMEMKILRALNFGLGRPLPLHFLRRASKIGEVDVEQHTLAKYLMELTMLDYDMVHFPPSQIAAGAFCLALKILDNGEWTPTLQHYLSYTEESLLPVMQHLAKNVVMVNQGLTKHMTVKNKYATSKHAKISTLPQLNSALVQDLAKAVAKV
Procedure: as §1, §2

Row | Structure (SMILES) | pIC50 (CDK2/Cyclin E) | pIC50 (CDK1/Cyclin B1, GST-tag)
1 | NS(=O)(=O)c1ccc(Nc2ncc(C(F)(F)F)c(-c3cnn(CC(O)C4CC4)c3)n2)c(F)c1 (stereo not drawn) [Example 32, 4-((4-(1-(2-cyclopropyl-2-hydroxyethyl)-1H-pyrazol-4-yl)-5-(trifluoromethyl)pyrimidin-2-yl)amino)-3-fluorobenzenesulfonamide] | 7.70 to 8.00 | ≤ 6.30
2 | N#Cc1cnc(Nc2ccc(S(N)(=O)=O)cc2)nc1-c1cnn(CCO)c1 [Example 34, 4-((5-cyano-4-(1-(2-hydroxyethyl)-1H-pyrazol-4-yl)pyrimidin-2-yl)amino)benzenesulfonamide] | 7.70 to 8.00 | 6.30 to 7.00
3 | C[C@H](O)Cn1cc(-c2nc(Nc3ccc(S(N)(=O)=O)cc3F)ncc2C(F)(F)F)cn1 [Example 35, (S)-3-fluoro-4-((4-(1-(2-hydroxypropyl)-1H-pyrazol-4-yl)-5-(trifluoromethyl)pyrimidin-2-yl)amino)benzenesulfonamide] | 7.70 to 8.00 | ≤ 6.30
4 | Cc1cnc(Nc2ccc(S(N)(=O)=O)cc2F)nc1-c1cnn(CC(C)(C)O)c1 [Example 36, 3-fluoro-4-((4-(1-(2-hydroxy-2-methylpropyl)-1H-pyrazol-4-yl)-5-methylpyrimidin-2-yl)amino)benzenesulfonamide] | 7.70 to 8.00 | ≤ 6.30
5 | Cc1cc(Nc2ncc(C(F)(F)F)c(-c3cnn(CC(C)(C)O)c3)n2)cc(C)c1S(N)(=O)=O [Example 37, 4-((4-(1-(2-hydroxy-2-methylpropyl)-1H-pyrazol-4-yl)-5-(trifluoromethyl)pyrimidin-2-yl)amino)-2,6-dimethylbenzenesulfonamide] | 7.70 to 8.00 | 6.30 to 7.00
6 | CC(C)(O)Cn1cc(-c2nc(Nc3ccc(S(N)(=O)=O)c(Cl)c3F)ncc2C(F)(F)F)cn1 [Example 38, 2-chloro-3-fluoro-4-((4-(1-(2-hydroxy-2-methylpropyl)-1H-pyrazol-4-yl)-5-(trifluoromethyl)pyrimidin-2-yl)amino)benzenesulfonamide] | 7.70 to 8.00 | ≤ 6.30
7 | N#Cc1cnc(Nc2ccc(S(N)(=O)=O)cc2)nc1-c1cnn(C2COC2)c1 [Example 39, 4-((5-cyano-4-(1-(oxetan-3-yl)-1H-pyrazol-4-yl)pyrimidin-2-yl)amino)benzenesulfonamide] | 7.70 to 8.00 | ≤ 6.30
8 | COc1c(S(N)(=O)=O)ccc(Nc2ncc(C(F)(F)F)c(-c3cnn(CC(C)(C)O)c3)n2)c1F [Example 40, 3-fluoro-4-((4-(1-(2-hydroxy-2-methylpropyl)-1H-pyrazol-4-yl)-5-(trifluoromethyl)pyrimidin-2-yl)amino)-2-methoxybenzenesulfonamide] | 7.70 to 8.00 | ≤ 6.30
9 | NS(=O)(=O)c1ccc(Nc2ncc(C(F)(F)F)c(-c3cnn(CC4(O)COC4)c3)n2)c(F)c1 [Example 41, 3-fluoro-4-((4-(1-((3-hydroxyoxetan-3-yl)methyl)-1H-pyrazol-4-yl)-5-(trifluoromethyl)pyrimidin-2-yl)amino)benzenesulfonamide] | 7.70 to 8.00 | ≤ 6.30
10 | CCc1cnc(Nc2ccc(S(N)(=O)=O)cc2F)nc1-c1cnn(CC(C)(C)O)c1 [Example 42, 4-((5-ethyl-4-(1-(2-hydroxy-2-methylpropyl)-1H-pyrazol-4-yl)pyrimidin-2-yl)amino)-3-fluorobenzenesulfonamide] | 7.52 to 7.70 | ≤ 6.30
11 | NS(=O)(=O)c1ccc(Nc2ncc(C(F)(F)F)c(-c3cnn(C4COC4)c3)n2)c(F)c1 [Example 43, 3-fluoro-4-((4-(1-(oxetan-3-yl)-1H-pyrazol-4-yl)-5-(trifluoromethyl)pyrimidin-2-yl)amino)benzenesulfonamide] | 7.52 to 7.70 | ≤ 6.30
12 | CC(C)(O)Cn1cc(-c2nc(Nc3ccc(S(N)(=O)=O)cc3Cl)ncc2F)cn1 [Example 44, 3-chloro-4-((5-fluoro-4-(1-(2-hydroxy-2-methylpropyl)-1H-pyrazol-4-yl)pyrimidin-2-yl)amino)benzenesulfonamide] | 7.52 to 7.70 | ≤ 6.30
13 | Cc1cc(Nc2ncc(C(F)(F)F)c(-c3cnn(CC(C)(C)O)c3)n2)c(F)cc1S(N)(=O)=O [Example 45, 5-fluoro-4-((4-(1-(2-hydroxy-2-methylpropyl)-1H-pyrazol-4-yl)-5-(trifluoromethyl)pyrimidin-2-yl)amino)-2-methylbenzenesulfonamide] | 7.52 to 7.70 | ≤ 6.30
14 | COc1cc(S(N)(=O)=O)ccc1Nc1ncc(F)c(-c2cnn(CC(C)(C)O)c2)n1 [Example 46, 4-((5-fluoro-4-(1-(2-hydroxy-2-methylpropyl)-1H-pyrazol-4-yl)pyrimidin-2-yl)amino)-3-methoxybenzenesulfonamide] | 7.00 to 7.52 | ≤ 6.30
15 | NS(=O)(=O)c1ccc(Nc2ncc(C(F)(F)F)c(-c3cnn(C4CCOCC4)c3)n2)c(F)c1 [Example 47, 3-fluoro-4-((4-(1-(tetrahydro-2H-pyran-4-yl)-1H-pyrazol-4-yl)-5-(trifluoromethyl)pyrimidin-2-yl)amino)benzenesulfonamide] | ≥ 8.00 | ≤ 6.30
